The record followed here is publication PMC8744835, “Sterically Hindered Quaternary Phosphonium Salts (QPSs): Antimicrobial Activity and Hemolytic and Cytotoxic Properties” (International Journal of Molecular Sciences, 2021).

The structures appear in SMILES notation.

Assay [1] has as its system methicillin-resistant S. aureus MRSA-1. The experiment in a line: Antimicrobial activity, serial dilution technique in Mueller–Hinton Broth 2. The assay is classed as cell-based, Staphylococcus aureus. The following applies: - means non-active. In short, it runs like this: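 Antimicrobial activity against methicillin-susceptible Staphylococcus aureus MRSA-1, a hospital isolate from a chronic tonsillitis patient that is resistant to fluoroquinolones and beta-lactams, was determined by serial dilution in Mueller–Hinton Broth 2. The bacterial load was 3.0 × 10^5 cfu/mL, incubation was at 37 °C, and growth was recorded every 24 h for 5 days.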

Assay [2] relates to methicillin-resistant S. aureus MRSA-2. Described as above. Format: cell-based, Staphylococcus aureus. The following applies: - means non-active. In short, it runs like this: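 Antimicrobial activity against methicillin-susceptible Staphylococcus aureus MRSA-2, a beta-lactam-resistant clinical isolate from a sinusitis patient at the Republican Clinical Hospital (Kazan), was assessed by serial dilution in Mueller–Hinton Broth 2. The inoculum was 3.0 × 10^5 cfu/mL. Cultures were incubated at 37 °C and read every 24 h for 5 days, in three repeat experiments.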

A further assay has as its system S. aureus 209 P. The experiment in a line: Bactericidal properties of coated plastic samples. The assay is classed as cell-based, Staphylococcus aureus. The following applies: for CFU/cm^2, Nylon: Nylon plastic. The protocol: The plastic samples, which were 10 mm × 10 mm × 2 mm, were preliminary sterilized and placed into an ethanolic solution of 12a for 1 min. Then, the studied and control (without coating) samples were immersed in bacterial suspensions with a known concentration of bacteria (10^5–10^8 bacteria/mL) for 24 h, and the number of viable micro-organisms was then estimated.
The plastic samples, which were 10 mm × 10 mm × 2 mm plates, were sterilized in a medical autoclave, HG-50 (Hirayama, Japan), at 121 °C for 20 min. Then, each sample was immersed in an ethanolic solution of compound 12a at concentrations of 0.01 and 0.001% for 1 min and air dried. After treatment, the plastic samples were placed in 24-well plates with 1 sample/well. Then, 1 mL of S. aureus 209 P suspension (10^5 bacteria/mL) was added to each well. The plastic control samples were not treated with compound 12a. The culture of Staphylococcus aureus 209 P was grown for a day at 37 °C in Mueller–Hinton Broth 2. Active daily growing cultures were diluted in physiological saline (NaCl 9.0 g/L) to a concentration of 10^5 bacteria/mL and then distributed into 25-well plates containing 1 cm^2 of coating/well, with the exception of an uncoated control well. After a 24-h incubation period at 37 °C, dilution series were performed for each treatment, and 100 μL volumes of 3 dilutions were plated on sterile Mueller–Hinton agar. After 24 h, the number of colonies on each plate was counted to obtain the corresponding concentration of live bacteria.

Assay [3] has as its system Escherichia coli ATCC 25922. Put plainly: Antimicrobial activity, serial dilution technique in Mueller–Hinton Broth 2. The assay is classed as cell-based. Conditions: Escherichia coli, ATCC25922, Ec; average of three ± SD; - means non-active; read-out: Minimum Bactericidal and Fungicidal Concentration (MBC, MFC), Ec.

With `CCCCCCCCCCCC[P+](C(C)(C)C)(C(C)(C)C)C(C)(C)C` [Compound 12a, tri-tert-butyl(n-dodecyl)phosphonium], the “Minimum Inhibitory Concentration (MIC), MRSA-1” value in assay [1] (MRSA-1 (resistant to fluoroquinolones and beta-lactams)) turned out to be 0.5 ± 0.03 µg/mL. In addition, the MBC in assay [1] (Staphylococcus aureus, MRSA, MRSA-1, read-out: Minimum Bactericidal and Fungicidal Concentration (MBC, MFC), MRSA-1) worked out at 0.5 ± 0.04 µg/mL; in assay [3] it was 7.8 ± 0.7 µg/mL. Moreover, in assay [2] (MRSA-2), the “Minimum Bactericidal and Fungicidal Concentration (MBC, MFC), MRSA-2” value worked out at 7.8 ± 0.6 µg/mL. The MIC in assay [2] (Staphylococcus aureus, MRSA, MRSA-2 (resistant to beta-lactams), read-out: Minimum Inhibitory Concentration (MIC), MRSA-2) came out at 0.5 ± 0.03 µg/mL. Also, the “bacterial growth on coated plastic” value in the assay on S. aureus 209 P (12a at a concentration of 0.01%, ABS, PLA natural and PETG plastics) is reported as “complete absence of bacterial growth”. In the assay with S. aureus 209 P (ABS plastic, 12a 0.001%, 24 h incubation with 10^5 S. aureus 209 P), the “CFU/cm^2, ABS” value is recorded as 2.5 × 10^3 CFU/cm^2. For the same molecule, the “CFU/cm^2, Nylon” value in the assay with S. aureus 209 P (12a 0.001%, 24 h incubation with 10^5 S. aureus 209 P) was 3.2 × 10^4 CFU/cm^2; in the assay with S. aureus 209 P (12a 0.01%, 24 h incubation with 10^5 S. aureus 209 P), 2.0 × 10^2 CFU/cm^2. The “CFU/cm^2, PC+” value in the assay with S. aureus 209 P (PC+ plastic, 12a 0.001%, 24 h incubation with 10^5 S. aureus 209 P) is reported as 1.2 × 10^4 CFU/cm^2. Further, in the assay with S. aureus 209 P (PETG plastic, 12a 0.001%, 24 h incubation with 10^5 S. aureus 209 P), the “CFU/cm^2, PETG” value was 1.8 × 10^3 CFU/cm^2. Besides, in the assay on S. aureus 209 P (PETG, 12a 0.001%), the “decrease of bacterial cell concentration compared to the control” value turned out to be 27 times. In the assay on S. aureus 209 P (PLA Natural plastic, 12a 0.001%, 24 h incubation with 10^5 S. aureus 209 P), the “CFU/cm^2, PLA Natural” value is reported as 5.0 × 10^3 CFU/cm^2. For the same molecule, the “CFU/cm^2, PLA+” value in the assay on S. aureus 209 P (PLA+ plastic, 12a 0.001%, 24 h incubation with 10^5 S. aureus 209 P) is given as 1.6 × 10^4 CFU/cm^2.
